Measurements taken from patent US8101732B2, “Methods of producing validamycin A analogs and uses thereof” (State of Oregon acting by and through the State Board of …, priority 2008, dated 2012).

Test system: Pellicularia sasakii (=R. solani)
Test: Fungal growth inhibitory assay (agar plug assay)
Format: cell-based
Details: growth monitored after two days, FIG. 4
Protocol: Fungal growth inhibitory assay of 1,1′-bis-valienamine (3) and validienamycin (4): 1% agar (14 mL) was mixed with the compounds (dissolved in 1 mL H2O) and then plated into Petri dishes. Discs of PDA agar with mycelia of Pellicularia sasakii were placed in the center of the above plates as the indicator strain for bioassay of the compounds. The plates were incubated at 30° C. for 2 days.
Antifungal activity assays of compounds 3 and 4 were tested against Pellicularia sasakii (=R. solani) using an agar plug assay (Minagawa et al., Chembiochem 8: 632-641, 2007). Agar plugs with diameter of 5 mm and containing P. sasakii mycelia were placed in the center of agar plates that contain each compound and the growth of the pathogen was monitored after two days. Active compounds were determined based on their ability to inhibit the expansion of the fungal mycelia on the Petri dishes.

Row | Structure (SMILES) | fungistatic activity (inhibition of expansion of the fungal mycelia) (lower concentration (0.02 mM) in agar plate) | fungistatic activity (inhibition of expansion of the fungal mycelia) (0.2 mM concentration in agar plate)
1 | OCC1=C[C@H](N[C@H]2C[C@H](CO)[C@@H](O[C@@H]3OC(CO)[C@@H](O)C(O)[C@H]3O)[C@H](O)[C@H]2O)[C@H](O)[C@@H](O)[C@@H]1O (some centres unmarked) [Compound 1, validamycin A] | the most active compound among those evaluated | 
2 | OCC1=C[C@H](N[C@H]2C=C(CO)[C@@H](O)[C@H](O)[C@H]2O)[C@H](O)[C@@H](O)[C@@H]1O [Compound 4, validienamycin] |  | comparable fungistatic activity with 1 and 2
